# Data: ChEMBL document CHEMBL1152592, “Design, synthesis and biological evaluations of novel 7-[3-(1-aminocycloalkyl)pyrrolidin-1-yl]-6-desfluoro-8-methoxyquinolones with potent antibacterial activity against multi-drug resistant Gram-positive bacteria” (Bioorg Med Chem, 2009)
# Experiments:
# [1] = system: Streptococcus pneumoniae; test: Antibacterial activity against Streptococcus pneumoniae J-24 after 18 hrs by twofold microbroth dilution method; assay type: functional; details: J-24, 18 h
# [2] = system: Staphylococcus epidermidis; test: Antibacterial activity against Staphylococcus epidermidis 56500 after 18 hrs by twofold microbroth dilution method; assay type: functional; details: Staphylococcus epidermidis, 56500, 18 h
# [3] = system: Pseudomonas aeruginosa; test: Antibacterial activity against Pseudomonas aeruginosa PAO1 after 18 hrs by twofold microbroth dilution method; assay type: functional; details: PAO1, 18 h
# [4] = system: Klebsiella pneumoniae; test: Antibacterial activity against Klebsiella pneumoniae type 2 after 18 hrs by twofold microbroth dilution method; assay type: functional; details: type 2, 18 h
# [5] = system: Enterococcus faecalis; test: Antibacterial activity against Enterococcus faecalis ATCC 19433 after 18 hrs by twofold microbroth dilution method; assay type: functional; details: ATCC19433, 18 h
# [6] = system: Staphylococcus aureus; test: Antibacterial activity against Staphylococcus aureus FDA 209-P after 18 hrs by twofold microbroth dilution method; assay type: functional
# [7] = system: Streptococcus pyogenes; test: Antibacterial activity against Streptococcus pyogenes G-36 after 18 hrs by twofold microbroth dilution method; assay type: functional; details: G-36, 18 h
# [8] = system: Escherichia coli; test: Antibacterial activity against Escherichia coli NIHJ after 18 hrs by twofold microbroth dilution method; assay type: functional
# [9] = Aqueous […] of the compound; assay type: physicochemical; details: aqueous (not further specified)
# [10] = system: Mus musculus; test: Toxicity in Slc:ddY mouse at 100 mg/kg, iv; assay type: organism-based; parameters: dose 100 mg/kg, route intravenous; details: in vivo
# [11] = system: Streptococcus mitis; test: Antibacterial activity against Streptococcus mitis IID685 after 18 hrs by twofold microbroth dilution method; assay type: functional; details: IID685, 18 h
# [12] = system: Mus musculus; test: Toxicity in Slc:ddY mouse assessed as micronucleated reticulocyte in blood at 100 mg/kg, iv after 48 hrs of treatment by fluorescence microscopy; assay type: organism-based; parameters: dose 100 mg/kg, route intravenous; details: in vivo
# [13] = AUC (0 to 6 hrs) in cynomolgus monkey serum at 20 mg/kg, po; assay type: ADME, organism-based, Macaca fascicularis, Plasma; parameters: time < 6 hr, dose 20 mg/kg, route oral
# [14] = Ratio of AUC (0 to 6 hrs) kidney to serum in Crj:CD rat […] at 20 mg/kg, iv; assay type: ADME, organism-based; parameters: dose 20 mg/kg, route intravenous
# [15] = Cmax in cynomolgus monkey serum at 20 mg/kg, po; assay type: ADME, organism-based, Macaca fascicularis; parameters: dose 20 mg/kg, route oral
# [16] = target: DNA gyrase (Staphylococcus aureus, UniProt P0A0K8+P20831); test: Inhibition of Staphylococcus aureus wild type DNA gyrase; assay type: protein-complex assay
# [17] = AUC (0 to 6 hrs) in Crj:CD rat liver at 20 mg/kg, iv; assay type: ADME, organism-based; parameters: time < 6 hr, dose 20 mg/kg, route intravenous
# [18] = Oral bioavailability in cynomolgus monkey serum at 20 mg/kg; assay type: ADME, organism-based, Macaca fascicularis
# [19] = Oral bioavailability in Crj:CD rat serum at 20 mg/kg; assay type: ADME, organism-based
# [20] = system: Enterococcus faecium; test: Antibacterial activity against vancomycin-resistant Enterococcus faecium after 18 hrs by twofold microbroth dilution method; assay type: functional
# [21] = Cmax in cynomolgus monkey serum at 20 mg/kg, iv; assay type: ADME, organism-based, Macaca fascicularis; parameters: dose 20 mg/kg, route intravenous
# [22] = Cmin in Crj:CD rat lung at 20 mg/kg, iv after 5 mins; assay type: ADME, organism-based; parameters: dose 20 mg/kg, route intravenous; details: read-out: Cmin
# [23] = Cmin in Crj:CD rat liver at 20 mg/kg, iv after 5 mins; assay type: ADME, organism-based; parameters: dose 20 mg/kg, route intravenous; details: read-out: Cmin
# [24] = Inhibition of Staphylococcus aureus wild type DNA topoisomerase 4
# [25] = Cmin in Crj:CD rat kidney at 20 mg/kg, iv after 5 mins; assay type: ADME, organism-based; parameters: dose 20 mg/kg, route intravenous; details: read-out: Cmin
# [26] = Half life in Crj:CD rat kidney at 20 mg/kg, iv; assay type: ADME, organism-based; parameters: dose 20 mg/kg, route intravenous
# [27] = system: Staphylococcus aureus; test: Selectivity ratio of IC50 for Staphylococcus aureus DNA gyrase Ser84Leu mutant to IC50 for Staphylococcus aureus wild type DNA gyrase
# [28] = AUC (0 to 6 hrs) in cynomolgus monkey serum at 20 mg/kg, iv; assay type: ADME, organism-based, Macaca fascicularis, Plasma; parameters: time < 6 hr, dose 20 mg/kg, route intravenous
# [29] = Half life in Crj:CD rat serum at 20 mg/kg, iv; assay type: ADME, organism-based; parameters: dose 20 mg/kg, route intravenous
# [30] = Ratio of AUC (0 to 6 hrs) lung to serum in Crj:CD rat lung at 20 mg/kg, iv; assay type: ADME, organism-based; parameters: dose 20 mg/kg, route intravenous
# [31] = Half life in Crj:CD rat lung at 20 mg/kg, iv; assay type: ADME, organism-based; parameters: dose 20 mg/kg, route intravenous
# [32] = AUC (0 to 6 hrs) in Crj:CD rat kidney at 20 mg/kg, iv; assay type: ADME, organism-based; parameters: time < 6 hr, dose 20 mg/kg, route intravenous
# [33] = AUC (0 to 6hrs) in Crj:CD rat serum at 20 mg/kg, po; assay type: ADME, organism-based; parameters: time < 6 hr, dose 20 mg/kg, route oral
# [34] = AUC (0 to 6 hrs) in Crj:CD rat lung at 20 mg/kg, iv; assay type: ADME, organism-based; parameters: time < 6 hr, dose 20 mg/kg, route intravenous
# [35] = system: Streptococcus pneumoniae; test: Antibacterial activity against penicillin-intermediate resistant Streptococcus pneumoniae after 18 hrs by twofold microbroth dilution method; assay type: functional
# [36] = Half life in Crj:CD rat liver at 20 mg/kg, iv; assay type: ADME, organism-based; parameters: dose 20 mg/kg, route intravenous
# [37] = system: Enterococcus faecalis; test: Antibacterial activity against vancomycin-resistant Enterococcus faecalis after 18 hrs by twofold microbroth dilution method; assay type: functional
# [38] = Inhibition of Staphylococcus aureus DNA topoisomerase 4 Ser80Phe mutant
# [39] = Half life in cynomolgus monkey serum at 20 mg/kg, iv; assay type: ADME, organism-based, Macaca fascicularis; parameters: dose 20 mg/kg, route intravenous
# [40] = system: Mus musculus; test: Toxicity in Slc:ddY mouse assessed as micronucleated reticulocyte in blood at 150 mg/kg, iv after 48 hrs of treatment by fluorescence microscopy; assay type: organism-based; parameters: dose 150 mg/kg, route intravenous; details: in vivo
# [41] = system: Staphylococcus aureus; test: Antibacterial activity against ciprofloxacin, methicillin-resistant Staphylococcus aureus after 18 hrs by twofold microbroth dilution method; assay type: functional
# [42] = Ratio of AUC (0 to 6 hrs) liver to serum in Crj:CD rat […] at 20 mg/kg, iv; assay type: ADME, organism-based; parameters: dose 20 mg/kg, route intravenous
# [43] = Cmin in Crj:CD rat serum at 20 mg/kg, iv after 5 mins; assay type: ADME, organism-based; parameters: dose 20 mg/kg, route intravenous; details: read-out: Cmin
# [44] = AUC (0 to 6 hrs) in Crj:CD rat serum at 20 mg/kg, iv; assay type: ADME, organism-based; parameters: time < 6 hr, dose 20 mg/kg, route intravenous
# [45] = system: Staphylococcus aureus; test: Antibacterial activity against levofloxacin, methicillin-resistant Staphylococcus aureus after 18 hrs by twofold microbroth dilution method; assay type: functional
# [46] = Half life in Crj:CD rat serum at 20 mg/kg, po; assay type: ADME, organism-based; parameters: dose 20 mg/kg, route oral
# [47] = system: Staphylococcus aureus; test: Selectivity ratio of IC50 for Staphylococcus aureus DNA topoisomerase 4 Ser80Phe mutant to IC50 for Staphylococcus aureus wild type DNA topoisomerase 4
# [48] = Half life in cynomolgus monkey serum at 20 mg/kg, po; assay type: ADME, organism-based, Macaca fascicularis; parameters: dose 20 mg/kg, route oral
# [49] = target: DNA gyrase subunit A (Staphylococcus aureus, UniProt P20831, S84L); test: Inhibition of Staphylococcus aureus DNA gyrase Ser84Leu mutant
# [50] = Cmax in Crj:CD rat serum at 20 mg/kg, po; assay type: ADME, organism-based; parameters: dose 20 mg/kg, route oral
# [51] = system: Mus musculus; test: Toxicity in Slc:ddY mouse at 150 mg/kg, iv; assay type: organism-based; parameters: dose 150 mg/kg, route intravenous; details: in vivo
# [52] = system: Mus musculus; test: Toxicity in Slc:ddY mouse at 50 mg/kg, iv; assay type: organism-based; parameters: dose 50 mg/kg, route intravenous; details: in vivo
smiles,measurement,setting,value
CNC1([C@@H]2CCN(c3ccc4c(=O)c(C(=O)O)cn([C@@H]5C[C@@H]5F)c4c3OC)C2)CC1,MIC,[1],0.006 µg/mL
same,MIC,[2],0.012 µg/mL
same,MIC,[3],0.39 µg/mL
same,MIC,[4],0.05 µg/mL
same,MIC,[5],0.05 µg/mL
same,MIC,[6],≤ 0.003 µg/mL
same,MIC,[7],0.012 µg/mL
same,MIC,[8],0.006 µg/mL
same,solubility,[9],161 µg/mL
same,Activity,[10],Non-toxic
same,MIC,[11],0.003 µg/mL
same,Activity,[12],Non-toxic
COc1c(N2CC[C@@H](C3(N)CC3)C2)ccc2c(=O)c(C(=O)O)cn([C@@H]3C[C@@H]3F)c12,MIC,[1],0.006 µg/mL
same,MIC,[2],0.006 µg/mL
same,AUC(0-t) at 6 h,[13],37500 ng·h/mL
same,Kp,[14],4.4
same,Cmax,[15],3700 ng/mL
same,IC50,[16],2.08 µM
same,AUC(0-t) at 6 h,[17],66100 ng·h/mL
same,bioavailability,[18],58.2%
same,bioavailability,[19],67.4%
same,MIC,[3],0.39 µg/mL
same,MIC,[4],0.05 µg/mL
same,MIC50,[20],0.25 µg/mL
same,MIC90,[20],2 µg/mL
same,Cmax,[21],12300 ng/mL
same,concentration at 5 min,[22],32400 ng/mL
same,concentration at 5 min,[23],48500 ng/mL
same,IC50,[24],0.309 µg/mL
same,concentration at 5 min,[25],47200 ng/mL
same,half-life,[26],1.4 h
same,Ratio IC50,[27],9.35
same,MIC,[5],0.025 µg/mL
same,AUC(0-t) at 6 h,[28],64400 ng·h/mL
same,half-life,[29],1.2 h
same,Kp,[30],3.1
same,MIC,[6],≤ 0.003 µg/mL
same,half-life,[31],1.2 h
same,AUC(0-t) at 6 h,[32],64400 ng·h/mL
same,MIC,[7],0.006 µg/mL
same,MIC,[8],≤ 0.003 µg/mL
same,AUC(0-t) at 6 h,[33],9800 ng·h/mL
same,AUC(0-t) at 6 h,[34],45500 ng·h/mL
same,MIC50,[35],0.03 µg/mL
same,MIC90,[35],0.03 µg/mL
same,solubility,[9],480 µg/mL
same,half-life,[36],1.1 h
same,MIC50,[37],0.25 µg/mL
same,MIC90,[37],0.5 µg/mL
same,IC50,[38],1.76 µg/mL
same,half-life,[39],4.4 h
same,Activity,[40],Toxic
same,MIC50,[41],0.06 µg/mL
same,MIC90,[41],0.5 µg/mL
same,Kp,[42],4.6
same,concentration at 5 min,[43],11000 ng/mL
same,AUC(0-t) at 6 h,[44],14500 ng·h/mL
same,MIC50,[45],0.12 µg/mL
same,MIC80,[45],1 µg/mL
same,MIC90,[45],1 µg/mL
same,half-life,[46],1.3 h
same,Activity,[10],Non-toxic
same,Ratio IC50,[47],5.7
same,half-life,[48],6 h
same,IC50,[49],19.5 µM
same,MIC,[11],0.003 µg/mL
same,Cmax,[50],6700 ng/mL
COc1c(N2CC[C@@H](C3(N)CCC3)C2)ccc2c(=O)c(C(=O)O)cn([C@@H]3C[C@@H]3F)c12,MIC,[1],0.006 µg/mL
same,MIC,[2],0.012 µg/mL
same,MIC,[3],0.39 µg/mL
same,MIC,[4],0.05 µg/mL
same,Activity,[51],Toxic
same,MIC,[5],0.05 µg/mL
same,MIC,[6],≤ 0.003 µg/mL
same,MIC,[7],0.006 µg/mL
same,MIC,[8],0.012 µg/mL
same,solubility,[9],604 µg/mL
same,Activity,[10],Non-toxic
same,Activity,[52],Non-toxic
same,MIC,[11],0.003 µg/mL
same,Activity,[12],Toxic
